Measurements as given in US9809574B2, “Isoindoline or isoquinoline compounds, a process for their preparation and pharmaceutical compositions containing them” (LES LABORATOIRES SERVIER, priority 2013, dated 2017).
Structures can show the parent of a compound that is named as a salt.

Experiments:
Bcl-2 protein = Bcl-2 protein (histag-Bcl-2, UniProtKB P10415) (Homo sapiens (Human), UniProt P10415); assay: Inhibition of Bcl-2 by the fluorescence polarisation technique; assay type: binding; conditions: fluorescence polarisation test; incubation for 2 hours; read-out: IC50 (nM) Bcl-2 FP
Text: For partial inhibitors, the percentage fluorescence polarisation inhibition for a given concentration of the test compound is indicated.

[1] = tested on: RS4; 11 leukaemia cell line; assay: In vitro cytotoxicity, Microculture Tetrazolium Assay (MTT); assay type: cell-based; conditions: 11 cells exposed for 48 hours
Procedure: The cytotoxicity studies were carried out on the RS4; 11 leukaemia cell line and on H146 small Cell Lung Carcinoma cell line. The cells are distributed onto microplates and exposed to the test compounds for 48 hours. The cell viability is then quantified by a colorimetric assay, the Microculture Tetrazolium Assay (Cancer Res., 1987, 47, 939-942).

Bcl-2 protein, sequence (P10415 whole entry): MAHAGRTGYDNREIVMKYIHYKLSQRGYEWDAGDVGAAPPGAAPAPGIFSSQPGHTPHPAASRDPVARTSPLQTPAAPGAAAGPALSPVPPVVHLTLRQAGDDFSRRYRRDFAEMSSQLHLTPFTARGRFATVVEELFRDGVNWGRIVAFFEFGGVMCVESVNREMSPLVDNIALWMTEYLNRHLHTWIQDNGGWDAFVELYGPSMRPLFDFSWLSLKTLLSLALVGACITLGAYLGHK

Row | Compound | IC50 (Bcl-2 protein) | IC50 ([1]; Homo sapiens) | IC50 [1]
1 | Cc1c(C(=O)N(C)c2ccccc2)cc(-c2cc3c(cc2C(=O)N2Cc4ccccc4C[C@H]2C)CN(C(=O)Oc2ccc(C#N)cc2)CC3)n1C [Example 786, 4-Cyanophenyl 6-{1,5-dimethyl-4-[methyl(phenyl)carbamoyl]-1H-pyrrol-2-yl}-7-[(3R)-3-methyl-1,2,3,4-tetrahydroisoquinoline-2-carbonyl]-1,2,3,4-tetrahydroisoquinoline-2-carboxylate] | 8.4 nM | 24 nM | 
2 | Cc1c(C(=O)N(C)c2ccccc2)cc(-c2cc3c(cc2C(=O)N2Cc4ccccc4C[C@H]2C)CN(C(=O)Oc2cccc(CCC(=O)N(C)C)c2)CC3)n1C [Example 787, 3-[2-(Dimethylcarbamoyl)ethyl]phenyl 6-{1,5-dimethyl-4-[methyl(phenyl)carbamoyl]-1H-pyrrol-2-yl}-7-[(3R)-3-methyl-1,2,3,4-tetrahydroisoquinoline-2-carbonyl]-1,2,3,4-tetrahydroisoquinoline-2-carboxylate] | 5 nM | 6.2 nM | 
3 | Cc1c(C(=O)N(C)c2ccccc2)cc(-c2cc3c(cc2C(=O)N2Cc4ccccc4C[C@H]2C)CN(C(=O)Oc2ccc(CCC(=O)N(C)C)cc2)CC3)n1C [Example 788, 4-[2-(Dimethylcarbamoyl)ethyl]phenyl 6-{1,5-dimethyl-4-[methyl(phenyl)carbamoyl]-1H-pyrrol-2-yl}-7-[(3R)-3-methyl-1,2,3,4-tetrahydroisoquinoline-2-carbonyl]-1,2,3,4-tetrahydroisoquinoline-2-carboxylate] | 4.4 nM | 14 nM | 
4 | Cc1c(C(=O)N(C)c2ccccc2)cc(-c2cc3c(cc2C(=O)N2Cc4ccccc4C[C@H]2C)CN(C(=O)Oc2ccc4[nH]ccc4c2)CC3)n1C [Example 789, 1H-Indol-5-yl 6-{1,5-dimethyl-4-[methyl(phenyl)carbamoyl]-1H-pyrrol-2-yl}-7-[(3R)-3-methyl-1,2,3,4-tetrahydroisoquinoline-2-carbonyl]-1,2,3,4-tetrahydroisoquinoline-2-carboxylate] | 8.9 nM | 14 nM | 
5 | Cc1c(C(=O)N(C)c2ccc(O)cc2)cc(-c2cc3c(cc2C(=O)N2Cc4ccccc4C[C@H]2C)CN(C(=O)OC2CCCCC2)CC3)n1C [Example 790, Cyclohexyl 6-{4-[(4-hydroxyphenyl)(methyl)carbamoyl]-1,5-dimethyl-1H-pyrrol-2-yl}-7-[(3R)-3-methyl-1,2,3,4-tetrahydroisoquinoline-2-carbonyl]-1,2,3,4-tetrahydroisoquinoline-2-carboxylate] | 3.4 nM | 20 nM | 
6 | Cc1c(C(=O)N(C)c2ccc(O)cc2)cc(-c2cc3c(cc2C(=O)N2Cc4ccccc4C[C@H]2CN2CCOCC2)CN(C(=O)OC2CCCCC2)CC3)n1C [Example 791, Cyclohexyl 6-{4-[(4-hydroxyphenyl)(methyl)carbamoyl]-1,5-dimethyl-1H-pyrrol-2-yl}-7-[(3S)-3-(morpholin-4-ylmethyl)-1,2,3,4-tetrahydroisoquinoline-2-carbonyl]-1,2,3,4-tetrahydroisoquinoline-2-carboxylate] | 2.8 nM | 54 nM | 
7 | Cc1c(C(=O)N(C)c2ccc(O)cc2)cc(-c2cc3c(cc2C(=O)N2Cc4ccccc4C[C@H]2C)CN(C(=O)NC2CCCCC2)CC3)n1C [Example 792, N-Cyclohexyl-6-{4-[(4-hydroxyphenyl)(methyl)carbamoyl]-1,5-dimethyl-1H-pyrrol-2-yl}-7-[(3R)-3-methyl-1,2,3,4-tetrahydroisoquinoline-2-carbonyl]-1,2,3,4-tetrahydroisoquinoline-2-carboxamide] | 4.6 nM | 21 nM | 
8 | Cc1c(C(=O)N(C)c2ccc(O)cc2)cc(-c2cc3c(cc2C(=O)N2Cc4ccccc4C[C@H]2CN2CCOCC2)CN(C(=O)NC2CCCCC2)CC3)n1C [Example 793, N-Cyclohexyl-6-{4-[(4-hydroxyphenyl)(methyl)carbamoyl]-1,5-dimethyl-1H-pyrrol-2-yl}-7-[(3S)-3-(morpholin-4-ylmethyl)-1,2,3,4-tetrahydroisoquinoline-2-carbonyl]-1,2,3,4-tetrahydroisoquinoline-2-carboxamide] | 4.4 nM | 92 nM | 
9 | Cc1c(C(=O)N(C)c2ccc(O)cc2)cc(-c2cc3c(cc2C(=O)N2Cc4ccccc4C[C@H]2CN2CCOCC2)CN(C(=O)CC2CCCCC2)CC3)n1C [Example 794, 5-[2-(2-Cyclohexylacetyl)-7-[(3S)-3-(morpholin-4-ylmethyl)-1,2,3,4-tetrahydroisoquinoline-2-carbonyl]-1,2,3,4-tetrahydroisoquinolin-6-yl]-N-(4-hydroxyphenyl)-N,1,2-trimethyl-1H-pyrrole-3-carboxamide] | 4.6 nM | 70 nM | 
10 | Cc1c(C(=O)N(C)c2ccc(O)cc2)cc(-c2cc3c(cc2C(=O)N2Cc4ccccc4C[C@H]2C)CN(C(=O)CC2CCCCC2)CC3)n1C [Example 795, 5-[2-(2-Cyclohexylacetyl)-7-[(3R)-3-methyl-1,2,3,4-tetrahydroisoquinoline-2-carbonyl]-1,2,3,4-tetrahydroisoquinolin-6-yl]-N-(4-hydroxyphenyl)-N,1,2-trimethyl-1H-pyrrole-3-carboxamide] | 5.3 nM | 32 nM | 
11 | Cc1c(C(=O)N(C)c2ccc(O)cc2)cc(-c2cc3c(cc2C(=O)N2Cc4ccccc4C[C@H]2CN2CCOCC2)CN(C(=O)OC2CCCC2)CC3)n1C [Example 796, Cyclopentyl 6-{4-[(4-hydroxyphenyl)(methyl)carbamoyl]-1,5-dimethyl-1H-pyrrol-2-yl}-7-[(3S)-3-(morpholin-4-ylmethyl)-1,2,3,4-tetrahydroisoquinoline-2-carbonyl]-1,2,3,4-tetrahydroisoquinoline-2-carboxylate] | 6.2 nM | 48 nM | 
12 | Cc1c(C(=O)N(C)c2ccc(O)cc2)cc(-c2cc3c(cc2C(=O)N2Cc4ccccc4C[C@H]2CN2CCOCC2)CN(C(=O)O[C@@H]2C[C@H](C)CC[C@H]2C(C)C)CC3)n1C [Example 797, (1R,2S,5R)-5-Methyl-2-(propan-2-yl)cyclohexyl 6-{4-[(4-hydroxyphenyl)(methyl)carbamoyl]-1,5-dimethyl-1H-pyrrol-2-yl}-7-[(3S)-3-(morpholin-4-ylmethyl)-1,2,3,4-tetrahydroisoquinoline-2-carbonyl]-1,2,3,4-tetrahydroisoquinoline-2-carboxylate] | 21 nM | 125 nM | 
13 | Cc1c(C(=O)N(C)c2ccc(O)cc2)cc(-c2cc3c(cc2C(=O)N2Cc4ccccc4C[C@H]2CN2CCOCC2)CN(C(=O)CC24CC5CC(CC(C5)C2)C4)CC3)n1C [Example 798, 5-{2-[2-(Adamantan-1-yl)acetyl]-7-[(3S)-3-(morpholin-4-ylmethyl)-1,2,3,4-tetrahydroisoquinoline-2-carbonyl]-1,2,3,4-tetrahydroisoquinolin-6-yl}-N-(4-hydroxyphenyl)-N,1,2-trimethyl-1H-pyrrole-3-carboxamide] | 9.1 nM | 76 nM | 
14 | Cc1c(C(=O)N(C)c2ccc(O)cc2)cc(-c2cc3c(cc2C(=O)N2Cc4ccccc4C[C@H]2C)CN(C(=O)CN2CCCCC2)CC3)n1C [Example 799, N-(4-Hydroxyphenyl)-N,1,2-trimethyl-5-{7-[(3R)-3-methyl-1,2,3,4-tetrahydroisoquinoline-2-carbonyl]-2-[2-(piperidin-1-yl)acetyl]-1,2,3,4-tetrahydroisoquinolin-6-yl}-1H-pyrrole-3-carboxamide] | 15 nM | > 150 nM | 
15 | Cc1c(C(=O)N(C)c2ccc(O)cc2)cc(-c2cc3c(cc2C(=O)N2Cc4ccccc4C[C@H]2C)CN(C(=O)OC2CCC(NC(=O)OC(C)(C)C)CC2)CC3)n1C (stereo partly drawn) [Example 800, (1r,4r)-4-{[(tert-Butoxy)carbonyl]amino}cyclohexyl 6-{4-[(4-hydroxyphenyl)(methyl)carbamoyl]-1,5-dimethyl-1H-pyrrol-2-yl}-7-[(3R)-3-methyl-1,2,3,4-tetrahydroisoquinoline-2-carbonyl]-1,2,3,4-tetrahydroisoquinoline-2-carboxylate] | 2 nM |  | 3.2 nM
16 | Cc1c(C(=O)N(C)c2ccc(O)cc2)cc(-c2cc3c(cc2C(=O)N2Cc4ccccc4C[C@H]2C)CN(C(=O)OC2CCC(N)CC2)CC3)n1C (stereo partly drawn) [Example 801, (1r,4r)-4-Aminocyclohexyl 6-{4-[(4-hydroxyphenyl)(methyl)carbamoyl]-1,5-dimethyl-1H-pyrrol-2-yl}-7-[(3R)-3-methyl-1,2,3,4-tetrahydroisoquinoline-2-carbonyl]-1,2,3,4-tetrahydroisoquinoline-2-carboxylate hydrochloride] | 2.7 nM |  | > 150 nM
17 | Cc1c(C(=O)N(C)c2ccc(O)cc2)cc(-c2cc3c(cc2C(=O)N2Cc4ccccc4C[C@H]2C)CN(C(=O)OC2CCC(N(C)C)CC2)CC3)n1C (stereo partly drawn) [Example 802, (1r,4r)-4-(Dimethylamino)cyclohexyl 6-{4-[(4-hydroxyphenyl)(methyl)carbamoyl]-1,5-dimethyl-1H-pyrrol-2-yl}-7-[(3R)-3-methyl-1,2,3,4-tetrahydroisoquinoline-2-carbonyl]-1,2,3,4-tetrahydroisoquinoline-2-carboxylate] | 4 nM |  | 99 nM
18 | CC(=O)N(C)c1ccc(OC(=O)N2CCc3cc(-c4cc(C(=O)N(C)c5ccc(O)cc5)c(C)n4C)c(C(=O)N4Cc5ccccc5C[C@H]4CN4CCOCC4)cc3C2)cc1 [Example 803, 4-(N-Methylacetamido)phenyl 6-{4-[(4-hydroxyphenyl)(methyl)carbamoyl]-1,5-dimethyl-1H-pyrrol-2-yl}-7-[(3S)-3-(morpholin-4-ylmethyl)-1,2,3,4-tetrahydroisoquinoline-2-carbonyl]-1,2,3,4-tetrahydroisoquinoline-2-carboxylate] | 4.6 nM | 37 nM | 
